These results are taken from publication PMC11434354, “Metabolic and Pharmacokinetic Profiling Studies of N, N-Dimethylaniline-Heliamine in Rats by UHPLC-Q-Orbitrap MS/MS” (Molecules, 2024).

Read-outs that look alike come from different tables or passages of the source.

This data set in a line: Pharmacokinetic study of DH in rats after oral and intravenous administration (non-compartmental analysis). The format is in vivo, male Sprague–Dawley (SD) rats. As to conditions: for MRT last: read-out: MRT0–t; for MRT inf: read-out: MRT0–∞; for half-life: read-out: T1/2 (terminal half-life) (converted). As to the method:
The Xinjiang Medical University (Xinjiang, China) provided twelve male Sprague–Dawley (SD) rats (weight 200 ± 20 g). The Animal Experimentation Ethics Committee of Xinjiang Medical University gave its approval to all animal experiments. DH was created using a mixture consisting of 2% ethanol, 8% Kolliphor, and 90% distilled water. Twelve rats were selected randomly and divided into two groups. Before administering the oral dose, the rats were fasted for 12 h but were allowed access to water. Each rat in the oral group was orally given 19.2 mg/kg of DH. Blood samples were collected from their ophthalmic veins at 0, 0.25, 0.5, 1, 1.5, 2, 4, 8, 12, and 24 h for the oral study. In the intravenous group, each rat was given an intravenous tail injection of 1.9 mg/kg of DH. Blood was collected from their ocular veins at 0, 0.1, 0.25, 0.5, 0.75, 1, 1.5, 3.4, 7.5, 12, and 24 h for further analysis. The collected plasma was thereafter subjected to centrifugation (14,000 rpm) for 10 min in a 1.5 mL polyethylene collection tube with EDTA. Following centrifugation, the supernatant was stored in a refrigerator at –80 °C.
Rat plasma samples were assessed for DH using a Thermo Fisher Scientific Q Exactive Plus Orbitrap MS and a Dionnex Ultimate 3000 RSL nano System (Thermo Fisher Scientific, Bremen, Germany). Chromatographic separation was performed with a pre-column (1.7 µm) and an ACQUITY UHPLC BEH C18 column (2.1 × 75 mm, 1.7 µm). The procedure utilized a 10 µL injection volume and was carried out for 5 min at 0.2 mL/min isocratic (70%A (0.1% formic acid in water): 30%B (acetonitrile)). The temperature of the RS autosampler was maintained at 10 °C, and the column was set at 35 °C. Positive electrospray ionization (ESI) and the Parallel Reaction Monitor (PRM) mode were employed to identify DH and the IS. AGC targets were set at 1 × 10^6, the maximum iteration time at 100 ms, the spray voltage at 3.2 kV, the capillary temperature at 320 °C, the S-lens RF level at 55, and 10 and 38 for the IS of the high collision dissociation cell of DH were the MS parameters used. The PRM transitions for DH and IS were 313.19/192.10 (m/z) and 400.18/310.12 (m/z), respectively.
Dissolve PK samples were stored at −80 °C at room temperature. We added 10 µL of 30% acetonitrile water and vortexed it for 3 s. We then added 10 µL of IS and vortexed it for 3 s. Then, 300 µL of acetonitrile was added to the above plasma, vortexed for 1 min, and centrifuged for 7 min. The mixture supernatant was collected and blown dry at 40 °C under nitrogen. Blow-dried samples were re-dissolved in 100 μL of 30% acetonitrile in water and centrifuged for 7 min.
Twelve male SD rats, weighing […], were used to perform PK studies on DH. SD rats fasted for 12 h before administration, but the water was freely available. Normal drinking and eating resumed four hours after administration. To study the bioavailability and PK parameters of DH, rats were randomly divided into two groups. The dose administered was 1.9 mg/kg for the intravenous group and 19.2 mg/kg for the oral administration group. Oral bioavailability was calculated using Equation (2) as follows:Oral bioavailability (%) = (AUCp.o. × Dosei.v./AUCi.v. × Dosep. o.) × 100%(2)
The Q Exactive Plus Orbitrap MS data were acquired using the Thermo Xcalibur 4.2. software (Thermo Fisher Scientific, Waltham, MA, USA). The Qual Browser was used to extract ion chromatograms for screening candidate metabolites with a mass tolerance of 5 ppm and a mass precision of 4 decimals. In addition, MS/MS fragment ions were extracted for structural confirmation of candidate metabolites. The Qual Browser was used for the quantification of DH in rat plasma. Pharmacokinetic parameters were processed using the non-compartmental pharmacokinetic data analysis software program of MaS Studio 1.5.2.14 stable (Shanghai Boca Pharmaceutical Technology Co., Shanghai, China). Finally, the results were described as arithmetic mean ± SD.

[1] abbreviates: I.V. 1.9 mg/kg, n = 6, mean ± SD.
Setting [2] is: P.O. 19.2 mg/kg, n = 6, mean ± SD.
The mark [3] stands for this setting: male, Sprague-Dawley, rat, plasma, iv, I.V. 1.9 mg/kg, n = 6, mean ± SD.
[4] abbreviates: male, Sprague-Dawley, rat, plasma, po, P.O. 19.2 mg/kg, n = 6, mean ± SD.

Under setting [1], `COc1cc2c(cc1OC)C(c1ccc(N(C)C)cc1)NCC2` (stereo not shown) [DH, N, N-dimethylaniline-heliamine] yielded an AUC0–t of 439 ± 30.1 ng·h/mL and an AUC0–∞ of 495 ± 36.4 ng·h/mL. Where the note is “I.V. 1.9 mg/kg, n = 6, mean ± SD, 1.9 mg/kg”, the “Vd (apparent volume of distribution)” value is 15,514.58 ± 2159.74 mL/kg. For the same compound, under setting [2], the AUC0–t is 707 ± 265 ng·h/mL, the AUC0–∞ amounted to 748 ± 279 ng·h/mL, the “CL (clearance)” value is 30,148.65 ± 15,354.27 mL/h/kg and the “Vd (apparent volume of distribution)” value was 126,728.09 ± 56,867.09 mL/kg. For the same compound, the Vd (male, Sprague-Dawley, rat, plasma, iv, 1.9 mg/kg, I.V. 1.9 mg/kg, n = 6, mean ± SD, read-out: Vd (apparent volume of distribution)) amounted to 15.1 L/kg. Besides, under setting [3], the Cmax stood at 183 ± 33.6 ng/mL, the MRT last is 2.49 ± 0.33 h, the MRT inf turned out to be 3.56 ± 0.26 h and the half-life is 2.79 ± 0.34 h. Also, the clearance (male, Sprague-Dawley, rat, plasma, iv, I.V. 1.9 mg/kg, n = 6, mean ± SD, read-out: CL (clearance) (converted)) is 64.3 mL/min/kg. In addition, the bioavailability (male, Sprague-Dawley, rat, plasma, oral, P.O. 19.2 mg/kg vs I.V. 1.9 mg/kg, read-out: Fabs (absolute oral bioavailability)) was 16.1%. Further, under setting [4], the highest concentration (Cmax) came out at 121 ± 42.4 ng/mL, the Tmax was 1.5 h, the MRT last worked out at 4.07 ± 0.34 h and the MRT inf came out at 4.76 ± 0.4 h. Also, the half-life under setting [4] is 2.96 ± 0.32 h.

For orientation: Cmax means the peak of the concentration-time curve. What is called bioavailability is dose-corrected exposure relative to a reference, in per cent. The Tmax is the time at which the peak concentration occurs.
